According to US20100056565A1, “Heterocyclic Derivatives as M3 Muscarinic Receptors” (priority 2007, published 2010):
Structures can show the parent of a compound that is named as a salt.

What follows are compounds tested against T1, Recombinant human M3 receptor (Homo sapiens, UniProt P20309) (assay: biochemical). Settings: SPA format; read-out: M3 Ki (SPA format).
T1 construct: expressed in transfected cells; host or cells: CHO-K1 cells (membranes)
T1 sequence (P20309 whole entry): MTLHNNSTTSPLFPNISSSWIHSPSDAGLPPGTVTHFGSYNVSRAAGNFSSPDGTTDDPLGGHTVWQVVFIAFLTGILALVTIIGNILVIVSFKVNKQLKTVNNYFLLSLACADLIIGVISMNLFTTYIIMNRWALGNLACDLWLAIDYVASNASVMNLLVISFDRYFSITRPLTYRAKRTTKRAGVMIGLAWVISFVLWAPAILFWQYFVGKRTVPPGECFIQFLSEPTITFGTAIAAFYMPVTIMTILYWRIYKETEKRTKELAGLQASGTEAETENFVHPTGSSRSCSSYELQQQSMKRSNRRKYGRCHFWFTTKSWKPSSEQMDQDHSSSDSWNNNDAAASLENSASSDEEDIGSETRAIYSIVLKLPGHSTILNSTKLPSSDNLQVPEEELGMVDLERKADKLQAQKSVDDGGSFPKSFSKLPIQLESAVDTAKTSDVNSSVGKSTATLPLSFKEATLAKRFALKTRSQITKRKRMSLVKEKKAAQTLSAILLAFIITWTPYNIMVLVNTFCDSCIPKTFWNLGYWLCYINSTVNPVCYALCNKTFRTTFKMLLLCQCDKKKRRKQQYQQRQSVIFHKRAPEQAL
Format: binding
Description: Recombinant human M3 receptor was expressed in CHO-K1 cells. Cell membranes were prepared and binding of [3H]-N-methyl scopolamine ([3H]-NMS) and compounds was assessed by a scintillation proximity assay (SPA). The incubation time was 16 hours at room temperature in the presence of 1% (v/v) DMSO. The assay was performed in white 96 well clear-bottomed NBS plates (Corning). Prior to the assay, the CHO cell membranes containing M3 receptor were coated onto SPA WGA (Wheat germ agglutinin) beads (GE Healthcare). Non specific binding was determined in the presence of 1 μM Atropine.
Radioactivity was measured on a Microbeta scintillation counter (PerkinElmer) using a 3H protocol with a 2 minutes per well read time. […] Concentration dependent inhibition of [3H]-NMS binding by compounds was expressed as pIC50.
For `O[C@](c1ccccc1)(c1ncc(C[N+]23CCC(CC2)C(CCc2ccccc2)C3)o1)C1CCCCC1` (stereo partly drawn) [Example 36, 1-[2-((R)—Cyclohexyl-hydroxy-phenyl-methyl)-oxazol-5-ylmethyl]-3-phenethyl-1-azonia-bicyclo[2.2.2]octane; bromide], the Ki was less than 5 nM.
`OC(c1ccccc1)(c1ccccc1)c1ncc(C[N+]23CCC(CC2)C(CCc2ccccc2)C3)o1` (stereo not shown) [Example 37, 1-[2-(Hydroxy-diphenyl-methyl)-oxazol-5-ylmethyl]-3-phenethyl-1-azonia-bicyclo[2.2.2]octane; bromide] showed a Ki of less than 5 nM.
`CC(C)=CCO[C@H]1C[N+]2(Cc3cnc([C@](O)(c4ccccc4)C4CCCCC4)o3)CCC1CC2` [Example 38, (R)-1-[2-((R)-cyclohexyl-hydroxy-phenyl-methyl)-oxazol-5-ylmethyl]-3-(3-methyl-but-2-enyloxy)-1-azonia-bicyclo[2.2.2]octane; formate] gave a Ki of less than 5 nM.
`OC(c1ccccc1)(c1ccccc1)c1ncc(C[N+]23CCC(CC2)C(SCc2ccccc2)C3)o1` (stereo not shown) [Example 39, 3-Benzylsulfanyl-1-[2-(hydroxy-diphenyl-methyl)-oxazol-5-ylmethyl]-1-azonia-bicyclo[2.2.2]octane; bromide,] showed a Ki of 5 to 20 nM.
`O[C@](c1ccccc1)(c1ncc(C[N+]23CCC(CC2)[C@H](SCc2ccccc2)C3)o1)C1CCCCC1` [Example 40, (S)-3-Benzylsulfanyl-1-[2-((R)-cyclohexyl-hydroxy-phenyl-methyl)-oxazol-5-ylmethyl]-1-azonia-bicyclo[2.2.2]octane; bromide] showed a Ki of less than 5 nM.
For `O[C@](c1ccccc1)(c1ncc(C[N+]23CCC(CC2)[C@@H](SCc2ccccc2)C3)o1)C1CCCCC1` [Example 41, (R)-3-Benzylsulfanyl-1-[2-((R)-cyclohexyl-hydroxy-phenyl-methyl)-oxazol-5-ylmethyl]-1-azonia-bicyclo[2.2.2]octane; bromide], the Ki was less than 5 nM.
`O[C@](c1ccccc1)(c1ncc(C[N+]23CCC(CC2)[C@H](CSc2ccccc2)C3)o1)C1CCCCC1` [Example 43, (S)-1-[2-((R)—Cyclohexyl-hydroxy-phenyl-methyl)-oxazol-5-ylmethyl]-3-phenylsulfanylmethyl-1-azonia-bicyclo[2.2.2]octane; bromide] was tested, and the Ki was less than 5 nM.
With `O[C@](c1ccccc1)(c1ncc(C[N+]23CCC(CC2)[C@@H](OCc2ccc(Cl)cc2)C3)o1)C1CCCC1` [Example 44, (R)-3-(4-chloro-benzyloxy)-1-[2-((R)-cyclopentyl-hydroxy-phenyl-methyl)-oxazol-5-ylmethyl]-1-azonia-bicyclo[2.2.2]octane; formate] the Ki was less than 5 nM.
With `O[C@](c1ccccc1)(c1ncc(C[N+]23CCC(CC2)[C@@H](OCc2ccc(Cl)c(Cl)c2)C3)o1)C1CCCC1` [Example 45, (R)-1-[2-((R)-cyclopentyl-hydroxy-phenyl-methyl)-oxazol-5-ylmethyl]-3-(3,4-dichloro-benzyloxy)-1-azonia-bicyclo[2.2.2]octane; formate] the Ki was less than 5 nM.
For `O[C@](c1ccccc1)(c1ncc(C[N+]23CCC(CC2)[C@@H](OCc2ccsc2)C3)o1)C1CCCCC1` [Example 46, (R)-1-[2-((A)-Cyclohexyl-hydroxy-phenyl-methyl)-oxazol-5-ylmethyl]-3-(thiophen-3-ylmethoxy)-1-azonia-bicyclo[2.2.2]octane; bromide], the Ki was less than 5 nM.
`O[C@](c1ccccc1)(c1ncc(C[N+]23CCC(COCc4ccccc4)(CC2)CC3)o1)C1CCCCC1` [Example 47, 4-Benzyloxymethyl-1-[2-((R)-cyclohexyl-hydroxy-phenyl-methyl)-oxazol-5-ylmethyl]-1-azonia-bicyclo[2.2.2]octane; bromide] was tested, and the Ki was greater than 20 nM.
For `OC(c1ccccc1)(c1ccccc1)c1ncc(C[N+]23CCC(CC2)[C@@H](OCc2cccc(F)c2)C3)o1` [Example 49, (R)-3-(3-fluoro-benzyloxy)-1-[2-(hydroxy-diphenyl-methyl)-oxazol-5-ylmethyl]-1-azonia-bicyclo[2.2.2]octane; formate], the Ki was less than 5 nM.
With `C=CCO[C@H]1C[N+]2(Cc3cnc([C@](O)(c4ccccc4)C4CCCCC4)o3)CCC1CC2` [Example 51, (R)-3-allyloxy-1-[2-((R)-cyclohexyl-hydroxy-phenyl-methyl)-oxazol-5-ylmethyl]-1-azonia-bicyclo[2.2.2]octane; formate] the Ki was less than 5 nM.
In the case of `O[C@](c1ccccc1)(c1ncc(C[N+]23CCC(CC2)[C@@H](OCc2ccccc2F)C3)o1)C1CCCCC1` [Example 52, (R)-1-[2-((R)-cyclohexyl-hydroxy-phenyl-methyl)-oxazol-5-ylmethyl]-3-(2-fluoro-benzyloxy)-1-azonia-bicyclo[2.2.2]octane; formate], the Ki is reported as less than 5 nM.
With `O[C@](c1ccccc1)(c1ncc(C[N+]23CCC(CC2)[C@@H](OCCC2CCCCC2)C3)o1)C1CCCCC1` [Example 53, (R)-3-(2-cyclohexyl-ethoxy)-1-[2-((R)-cyclohexyl-hydroxy-phenyl-methyl)-oxazol-5-ylmethyl]-1-azonia-bicyclo[2.2.2]octane; formate] the Ki was less than 5 nM.
Compound `O[C@](c1ccccc1)(c1ncc(C[N+]23CCC(COc4ccccc4)(CC2)CC3)o1)C1CCCCC1` [Example 55, 1-[2 ((R)—Cyclohexyl-hydroxy-phenyl-methyl)-oxazol-5-ylmethyl]-4-phenoxymethyl-1-azonia-bicyclo[2.2.2]octane; bromide] has a Ki of less than 5 nM.
`O[C@](c1ccccc1)(c1nnc(C[N+]23CCC(CC2)[C@@H](OCc2ccccc2)C3)o1)C1CCCCC1` [Example 56, (R)-3-benzyloxy-1-[5-((R)-cyclohexyl-hydroxy-phenyl-methyl)-[1,3,4]oxadiazol-2-ylmethyl]-1-azonia-bicyclo[2.2.2]octane; formate] gave a Ki of less than 5 nM.
With `OC(c1ccccc1)(c1ccccc1)c1ncc(C[N+]23CCC(CC2)[C@@H](Oc2ccc(C(F)(F)F)cc2)C3)o1` [Example 57, (R)-1-[2-(Hydroxy-diphenyl-methyl)-oxazol-5-ylmethyl]-3-(4-trifluoromethyl-phenoxy)-1-azonia-bicyclo[2.2.2]octane; bromide] the Ki was 5 to 20 nM.
With `Cc1ccc(O[C@H]2C[N+]3(Cc4cnc(C(O)(c5ccccc5)c5ccccc5)o4)CCC2CC3)cc1` [Example 58, (R)-1-[2-(Hydroxy-diphenyl-methyl)-oxazol-5-ylmethyl]-3-p-tolyloxy-1-azonia-bicyclo[2.2.2]octane; bromide] the Ki was less than 5 nM.
Compound `Cc1ccc(O[C@H]2C[N+]3(Cc4cnc(C(O)(c5ccccc5)c5ccccc5)o4)CCC2CC3)cc1Cl` [Example 59, (R)-3-(3-Chloro-4-methyl-phenoxy)-1-[2-(hydroxy-diphenyl-methyl)-oxazol-5-ylmethyl]-1-azonia-bicyclo[2.2.2]octane; bromide] has a Ki of less than 5 nM.
With `Cc1ccc(O[C@H]2C[N+]3(Cc4cnc([C@](O)(c5ccccc5)C5CCCCC5)o4)CCC2CC3)cc1Cl` [Example 60, (R)-3-(3-Chloro-4-methyl-phenoxy)-1-[2-((R)-cyclohexyl-hydroxy-phenyl-methyl)-oxazol-5-ylmethyl]-1-azonia-bicyclo[2.2.2]octane; bromide] the Ki was less than 5 nM.
For `O[C@](c1ccccc1)(c1ncc(C[N+]23CCC(CC2)C(Cc2ccccc2)C3)o1)C1CCCCC1` (stereo partly drawn) [Example 61, 3-benzyl-1-[2-((R)-cyclohexyl-hydroxy-phenyl-methyl)-oxazol-5-ylmethyl]-1-azonia-bicyclo[2.2.2]octane; formate], the Ki was less than 5 nM.
